The target of assay [1] is Protein kinase C alpha type (Homo sapiens, UniProt P17252). It is filed as cell-based. As to conditions: sf9.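 Also: inhibition of PKCalpha kinase activity measured in an enzyme assay with histone as the phosphorylation substrate; in other assays of this panel Not Active means under 50% inhibition at 10 µM.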
The target in a further assay is Vasopressin V1a receptor (Homo sapiens, UniProt P37288). The format is cell membranes, Membrane. As to conditions: hek293. Also: in other assays of this panel Not Active means under 50% inhibition at 10 µM.
Assay [2] is described as follows: DRUGMATRIX: Purinergic P2X radioligand binding (ligand: [3H] alpha, beta-Methylene-ATP). As to conditions: Not Active = under 50% inhibition at 10 µM. It is filed as cell membranes, Oryctolagus cuniculus, New Zealand albino, Urinary bladder, Membrane.
In assay [3] the target is T1, Neuropeptide Y receptor type 2 (Homo sapiens, UniProt P49146). Also: in other assays of this panel Not Active means under 50% inhibition at 10 µM.
T1 sequence (P49146 whole entry): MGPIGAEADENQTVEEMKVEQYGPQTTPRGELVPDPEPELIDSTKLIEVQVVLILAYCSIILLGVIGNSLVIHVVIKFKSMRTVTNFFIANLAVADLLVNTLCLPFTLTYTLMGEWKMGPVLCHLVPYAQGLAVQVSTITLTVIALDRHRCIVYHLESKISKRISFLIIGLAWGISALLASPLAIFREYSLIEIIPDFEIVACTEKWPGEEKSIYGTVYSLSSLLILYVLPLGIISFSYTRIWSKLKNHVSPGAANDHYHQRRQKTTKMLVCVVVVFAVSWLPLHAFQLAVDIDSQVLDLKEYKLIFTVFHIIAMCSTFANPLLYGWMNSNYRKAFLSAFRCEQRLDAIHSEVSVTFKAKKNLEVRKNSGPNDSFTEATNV
It is filed as cell membranes, Membrane. As to conditions: kan-ts.

The target of another assay is T2, Progesterone receptor (Bos taurus, UniProt Q690N0).
T2 sequence (Q690N0 whole entry): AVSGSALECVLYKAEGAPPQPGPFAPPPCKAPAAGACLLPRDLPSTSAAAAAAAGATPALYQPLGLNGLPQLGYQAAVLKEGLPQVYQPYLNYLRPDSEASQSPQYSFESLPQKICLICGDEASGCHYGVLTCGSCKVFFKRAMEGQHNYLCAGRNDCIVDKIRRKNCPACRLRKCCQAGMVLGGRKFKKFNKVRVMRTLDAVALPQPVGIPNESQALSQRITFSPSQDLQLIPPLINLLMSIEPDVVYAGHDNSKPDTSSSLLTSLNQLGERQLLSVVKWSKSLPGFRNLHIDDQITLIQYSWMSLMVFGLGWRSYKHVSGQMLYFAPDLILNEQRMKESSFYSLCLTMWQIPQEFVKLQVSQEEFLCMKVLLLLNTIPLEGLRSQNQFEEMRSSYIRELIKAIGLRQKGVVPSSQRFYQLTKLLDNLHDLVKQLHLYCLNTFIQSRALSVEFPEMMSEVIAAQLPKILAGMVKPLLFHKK
The experiment in a line: DRUGMATRIX: Progesterone radioligand binding (ligand: [3H] R-5020). The format is tissue-based, Uterus. As to conditions: Not Active = under 50% inhibition at 10 µM; for Ki: read-out: Ki.

The nature of assay [4]: DRUGMATRIX: Calcium Channel Type L, Dihydropyridine radioligand binding (ligand: [3H] Nitrendipine). As to conditions: Not Active = under 50% inhibition at 10 µM. It is filed as cell membranes, Rattus norvegicus, Wistar, Cerebral cortex, Membrane.

Usually IC50 stands for the concentration that inhibits the measured activity by half. What is called Ki is the dissociation constant of the complex between target and ligand, obtained from inhibition or displacement.

Vasopressin V1a receptor, sequence (P37288 whole entry): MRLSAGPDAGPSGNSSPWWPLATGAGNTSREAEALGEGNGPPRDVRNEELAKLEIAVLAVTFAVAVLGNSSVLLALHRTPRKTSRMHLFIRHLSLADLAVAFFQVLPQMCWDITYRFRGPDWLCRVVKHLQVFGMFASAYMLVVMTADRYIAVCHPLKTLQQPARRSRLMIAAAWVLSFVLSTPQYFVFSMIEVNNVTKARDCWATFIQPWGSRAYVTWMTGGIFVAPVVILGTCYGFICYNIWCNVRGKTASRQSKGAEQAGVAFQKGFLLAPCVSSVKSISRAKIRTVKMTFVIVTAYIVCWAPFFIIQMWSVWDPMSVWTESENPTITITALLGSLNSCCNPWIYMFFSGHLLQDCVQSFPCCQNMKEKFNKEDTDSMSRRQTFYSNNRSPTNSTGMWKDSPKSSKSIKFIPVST

On to `CN1C(=O)COc2c(C(=O)NC3CN4CCC3CC4)cc(Cl)cc21` (stereo not drawn) [AZASETRON], for which the IC50 entry (in assay [1]; at Vasopressin V1a receptor; in assay [2]; in assay [3]; at Progesterone receptor; in assay [4]) was “Not Active” in each case. Also, the Ki result in assay [2] and in assay [4] was “Not Active” each time.

As to `C[C@H]1C[C@H]2[C@@H]3CCC4=CC(=O)C=C[C@]4(C)[C@@]3(Cl)[C@@H](O)C[C@]2(C)[C@@]1(O)C(=O)CO` [BECLOMETHASONE], the IC50 result (in assay [1]; against Vasopressin V1a receptor; in assay [2]; in assay [3]; at Progesterone receptor; in assay [4]) was “Not Active” each time. In addition, the Ki entry in assay [2] and in assay [4] was “Not Active” each time.

As for `O=C1CC2(CCCC2)CC(=O)N1CCCCN1CCN(c2ncccn2)CC1` [BUSPIRONE], the IC50 entry (in assay [1]; against Vasopressin V1a receptor; in assay [2]; in assay [3]; at Progesterone receptor; in assay [4]) was “Not Active” throughout. In addition, the Ki result in assay [2] and in assay [4] was “Not Active” each time.

`C[C@@]12C(=O)OC(=O)[C@]1(C)[C@H]1CC[C@@H]2O1` [CANTHARIDIN]: the half-inhibitory concentration (IC50) result (in assay [1]; against Vasopressin V1a receptor; in assay [2]; in assay [3]; on Progesterone receptor; in assay [4]) was “Not Active” each time. Moreover, the Ki result in assay [2] and in assay [4] was “Not Active” each time.

Take `C[N+](C)(C)CCO.[Cl-]` [CHOLINE CHLORIDE]: the IC50 entry (in assay [1]; against Vasopressin V1a receptor; in assay [2]; in assay [3]; on Progesterone receptor; in assay [4]) was “Not Active” throughout. Further, the Ki result in assay [2] and in assay [4] was “Not Active” in each case.

As for `C/C=C/C[C@@H](C)[C@@H](O)[C@H]1C(=O)N[C@@H](CC)C(=O)N(C)CC(=O)N(C)[C@@H](CC(C)C)C(=O)N[C@@H](C(C)C)C(=O)N(C)[C@@H](CC(C)C)C(=O)N[C@@H](C)C(=O)N[C@H](C)C(=O)N(C)[C@@H](CC(C)C)C(=O)N(C)[C@@H](CC(C)C)C(=O)N(C)[C@@H](C(C)C)C(=O)N1C` [CYCLOSPORINE], the IC50 entry (in assay [1]; against Vasopressin V1a receptor; in assay [2]; in assay [3]; on Progesterone receptor; in assay [4]) was “Not Active” in each case. For the same compound, the inhibition constant Ki result in assay [2] and in assay [4] was “Not Active” each time.

With `CC(=O)Nc1c(I)c(NC(C)=O)c(I)c(C(=O)O)c1I` [DIATRIZOIC ACID], the IC50 entry (in assay [1]; against Vasopressin V1a receptor; in assay [2]; in assay [3]; at Progesterone receptor; in assay [4]) was “Not Active” each time. In addition, the Ki entry in assay [2] and in assay [4] was “Not Active” each time.

With `C[C@]12CC[C@@H]3c4ccc(O)cc4CC[C@H]3[C@@H]1CC[C@@H]2O` [ESTRADIOL], the IC50 entry in assay [1] was “Not Active”; at Vasopressin V1a receptor, “Not Active”; in assay [2], “Not Active”; in assay [3], “Not Active”; at Progesterone receptor (read-out: IC50), 32.6 µM; in assay [4] it was “Not Active”. Besides, the Ki result in assay [2] was “Not Active”; on Progesterone receptor, 4.25 µM; in assay [4], “Not Active”.

In the case of `CC1(C)O[C@@H]2C[C@H]3[C@@H]4C[C@H](F)C5=CC(=O)C=C[C@]5(C)[C@@]4(F)[C@@H](O)C[C@]3(C)[C@]2(C(=O)CO)O1` [FLUOCINOLONE ACETONIDE], the concentration for half-maximal inhibition (IC50) entry is “Not Active” in assay [1]; “Not Active” against Vasopressin V1a receptor; “Not Active” in assay [2]; “Not Active” in assay [3]; 0.026 µM on Progesterone receptor (read-out: IC50); “Not Active” in assay [4]. In addition, the Ki result is “Not Active” in assay [2], 0.00335 µM at Progesterone receptor and “Not Active” in assay [4].

Turning to `Cc1ccc(S(=O)(=O)NC(=O)NN2CC3CCCC3C2)cc1` (stereo not drawn) [GLICLAZIDE], the IC50 entry (in assay [1]; on Vasopressin V1a receptor; in assay [2]; in assay [3]; at Progesterone receptor; in assay [4]) was “Not Active” throughout. Also, the Ki result in assay [2] and in assay [4] was “Not Active” each time.

Regarding `COc1ccc2c(c1)c(CC(=O)O)c(C)n2C(=O)c1ccc(Cl)cc1` [INDOMETHACIN], the IC50 entry (in assay [1]; against Vasopressin V1a receptor; in assay [2]; in assay [3]; on Progesterone receptor; in assay [4]) was “Not Active” throughout. Also, the Ki entry in assay [2] and in assay [4] was “Not Active” in each case.

As to `C#C[C@]1(O)CC[C@H]2[C@@H]3CCc4cc(OC)ccc4[C@H]3CC[C@@]21C` [MESTRANOL], the IC50 entry in assay [1] is “Not Active”; on Vasopressin V1a receptor, “Not Active”; in assay [2] it was “Not Active”; in assay [3], “Not Active”; at Progesterone receptor (read-out: IC50), 84.4 µM; in assay [4], “Not Active”. Also, the Ki result is “Not Active” in assay [2], 11 µM on Progesterone receptor and “Not Active” in assay [4].

As for `Cc1ncc([N+](=O)[O-])n1CCO` [METRONIDAZOLE], the half-maximal inhibitory concentration (IC50) result (in assay [1]; against Vasopressin V1a receptor; in assay [2]; in assay [3]; on Progesterone receptor; in assay [4]) was “Not Active” in each case. Besides, the inhibition constant Ki result in assay [2] and in assay [4] was “Not Active” throughout.

As to `CC(C)(C(=O)c1cccnc1)c1cccnc1` [METYRAPONE], the IC50 entry (in assay [1]; at Vasopressin V1a receptor; in assay [2]; in assay [3]; at Progesterone receptor; in assay [4]) was “Not Active” in each case. For the same compound, the inhibition constant Ki entry in assay [2] and in assay [4] was “Not Active” in each case.

As to `COc1ccc2cc([C@H](C)C(=O)O)ccc2c1` [NAPROXEN], the IC50 result (in assay [1]; against Vasopressin V1a receptor; in assay [2]; in assay [3]; on Progesterone receptor; in assay [4]) was “Not Active” each time. The Ki result in assay [2] and in assay [4] was “Not Active” each time.

Regarding `COC(=O)C1=C(C)NC(C)=C(C(=O)OCC(C)C)C1c1ccccc1[N+](=O)[O-]` (stereo not drawn) [NISOLDIPINE], the IC50 entry is “Not Active” in assay [1]; “Not Active” at Vasopressin V1a receptor; “Not Active” in assay [2]; “Not Active” in assay [3]; “Not Active” on Progesterone receptor; 0.000741 µM in assay [4] (read-out: IC50). Moreover, the Ki result is “Not Active” in assay [2] and 0.000476 µM in assay [4] (read-out: Ki).

`O=C(C1CCCCC1)N1CC(=O)N2CCc3ccccc3C2C1` (stereo not drawn) [PRAZIQUANTEL]: the IC50 result (in assay [1]; on Vasopressin V1a receptor; in assay [2]; in assay [3]; on Progesterone receptor; in assay [4]) was “Not Active” throughout. Besides, the inhibition constant Ki entry in assay [2] and in assay [4] was “Not Active” each time.

Regarding `CCN(CC)CCOC(=O)c1ccc(N)cc1` [PROCAINE], the IC50 entry (in assay [1]; against Vasopressin V1a receptor; in assay [2]; in assay [3]; at Progesterone receptor; in assay [4]) was “Not Active” throughout. The Ki entry in assay [2] and in assay [4] was “Not Active” throughout.

Take `CCCN(CCC)C(=O)C(CCC(=O)O)NC(=O)c1ccccc1` (stereo not drawn) [PROGLUMIDE]: the IC50 entry (in assay [1]; on Vasopressin V1a receptor; in assay [2]; in assay [3]; at Progesterone receptor; in assay [4]) was “Not Active” throughout. The Ki result in assay [2] and in assay [4] was “Not Active” in each case.

Regarding `Cc1cc2cc3c(C)cc(=O)oc3c(C)c2o1` [TRIOXSALEN], the IC50 entry (in assay [1]; against Vasopressin V1a receptor; in assay [2]; in assay [3]; on Progesterone receptor; in assay [4]) was “Not Active” in each case. The inhibition constant Ki entry in assay [2] and in assay [4] was “Not Active” throughout.

Source of the values: ChEMBL document CHEMBL1909046, “DrugMatrix in vitro pharmacology data”.
